pIC50: −log10 of the molar value.
Molecular target: T1, human NAPE-PLD (Homo sapiens, UniProt Q6IQ20)
T1 construct: Full length human cDNA NAPE-PLD was obtained from Natsuo Ueda; made in house; host or cells: HEK293T cells, transient transfection (pcDNA3.1); membrane fraction used
Test: In vitro NAPE-PLD activity assay
Format: biochemical
Conditions: membrane protein fraction of HEK293T cells overexpressing human NAPE-PLD; substrate PED6 1 µM; 30 minutes preincubation at 37 °C
Procedure: Full length human cDNA NAPE-PLD was obtained from Natsuo Ueda^1 and cloned into mammalian expression vector pcDNA3.1, containing a C-terminal Flag-tag and genes for ampicillin and neomycin resistance. All plasmids were grown in XL-10 Z-competent cells and prepped (Maxi Prep, Qiagen). Sequence analysis for the confirmation of the sequences was performed at the Leiden Genome Technology Centre.
HEK293T were cultured at 37 °C and 7% CO2 in DMEM (Sigma Aldrich, D6546) with glutamax, penicillin (100 µg/ml), streptomycin (100 µg/ml) and 10% New Born Calf Serum iron supplemented (Hyclone SH30072.03). Cells were passaged twice a week to appropriate confluence.
24 hours before transfection 10^7 cells are seeded on a 15 cm dish. Two hours before transfection medium is refreshed, low volume. Transfection is performed with PEI in a ratio of 3:1 with human NAPE-PLD or Mock pcDNA3.1 Neo, 20 µg per dish. Medium is refreshed after 24 hours and cells are harvested after 72 hours.
Cell pellets are re-suspended in lysis buffer: 20 mM Hepes, 2 mM DTT, 0.25 M sucrose, 1 mM MgCl2, 2.5 U/ml benzonase and incubated 30 minutes on ice. The cytosolic fraction (supernatant) is separated from the membranes by ultra-centrifugation (32000 rpm for 30 minutes 100,000g). The pellet is resuspended in storage buffer: 20 mM Hepes, 2 mM DTT (membrane fraction). All samples are stored at -80°C. Enzyme concentrations are determined using a Bradford assay.
The NAPE-PLD activity assay is based on a previously reported method with small alterations.^2 The membrane protein fraction from transient overexpression of human NAPE-PLD in HEK293T cells was diluted to 0.4 mg/ml in assay buffer: 50 mM Tris-HCl (pH 7.5), 0.02% Triton X-100, 150 mM NaCl. The substrate PED6 (Invitrogen) 1 mM stock was consecutively diluted in DMSO (10x) and in assay buffer (10x) to make a 10 µM working solution. […] The assay is performed in a dark Greiner 96 wells plate, end volume 100 µl. The compound or DMSO is incubated with membrane protein lysate (final concentration 0.04 mg/ml) for 30 minutes at 37 °C. […] Mock lysate with DMSO is used for background substraction. IC50 curves are generated used Graphpad Prism v6.

T1 sequence (Q6IQ20 whole entry): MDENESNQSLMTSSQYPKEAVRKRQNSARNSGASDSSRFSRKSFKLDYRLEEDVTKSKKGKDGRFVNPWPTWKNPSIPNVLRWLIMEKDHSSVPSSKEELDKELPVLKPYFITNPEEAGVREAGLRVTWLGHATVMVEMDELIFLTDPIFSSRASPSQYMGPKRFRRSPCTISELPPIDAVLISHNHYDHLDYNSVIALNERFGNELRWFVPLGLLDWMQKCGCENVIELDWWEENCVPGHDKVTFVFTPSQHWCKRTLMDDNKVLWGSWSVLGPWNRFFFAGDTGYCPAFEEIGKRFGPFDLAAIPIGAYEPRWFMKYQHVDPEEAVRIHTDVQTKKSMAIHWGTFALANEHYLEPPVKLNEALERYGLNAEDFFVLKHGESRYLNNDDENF

pIC50	SMILES
6.52	CN(CCc1ccccc1)c1nc(C(=O)NCC2CC2)cc(N2CC[C@@H](O)C2)n1 [Example 38, (R)-N-(cyclopropylmethyl)-6-(3-hydroxypyrrolidin-1-yl)-2-(methyl(phenethyl)amino)pyrimidine-4-carboxamide]
6.63	CN(CCc1ccccc1)c1nc(C(=O)NCC2CC2)cc(N2CC[C@H](O)C2)n1 [Example 39, (S)-N-(cyclopropylmethyl)-6-(3-hydroxypyrrolidin-1-yl)-2-(methyl(phenethyl)amino)pyrimidine-4-carboxamide]
7.14	O=C(NCC1CC1)c1cc(N2CC[C@H](O)C2)nc(N2CCC[C@@H](c3ccccc3)C2)n1 [Example 40, N-(cyclopropylmethyl)-6-((S)-3-hydroxypyrrolidin-1-yl)-2-((S)-3-phenylpiperidin-1-yl)pyrimidine-4-carboxamide]
6.60	O=C(NCC1CC1)c1cc(N2CC[C@H](O)C2)nc(N2CCC[C@H](c3ccccc3)C2)n1 [Example 41, N-(cyclopropylmethyl)-6-((S)-3-hydroxypyrrolidin-1-yl)-2-((R)-3-phenylpiperidin-1-yl)pyrimidine-4-carboxamide]
6.49	O=C(NCC1CC1)c1cc(N2CC[C@@H](O)C2)nc(N2CCC[C@H](c3ccccc3)C2)n1 [Example 42, N-(cyclopropylmethyl)-6-((R)-3-hydroxypyrrolidin-1-yl)-2-((R)-3-phenylpiperidin-1-yl)pyrimidine-4-carboxamide]
6.96	O=C(NCC1CC1)c1cc(N2CC[C@@H](O)C2)nc(N2CCC[C@@H](c3ccccc3)C2)n1 [Example 43, N-(cyclopropylmethyl)-6-((R)-3-hydroxypyrrolidin-1-yl)-2-((S)-3-phenylpiperidin-1-yl)pyrimidine-4-carboxamide]
6.32	C#CCNC(=O)c1cc(N2CC[C@H](O)C2)nc(N2CCN(Cc3ccc(C4(C(F)(F)F)N=N4)cc3)CC2)n1 [Example 44, (S)-6-(3-hydroxypyrrolidin-1-yl)-N-(prop-2-yn-1-yl)-2-(4-(4-(3-(trifluoromethyl)-3H-diazirin-3-yl)benzyl)piperazin-1-yl)pyrimidine-4-carboxamide]
6.21	C#CCNC(=O)c1cc(N2CC[C@H](O)C2)nc(N2CCN(C(=O)c3ccc(C4(C(F)(F)F)N=N4)cc3)CC2)n1 [Example 45, (S)-6-(3-hydroxypyrrolidin-1-yl)-N-(prop-2-yn-1-yl)-2-(4-(4-(3-(trifluoromethyl)-3H-diazirin-3-yl)benzoyl)piperazin-1-yl)pyrimidine-4-carboxamide]
6.68	O=C(NCC1CC1)c1cc(N2CCOCC2)nc(N2CCC[C@@H](c3ccccc3)C2)n1 [Example 46, (S)-N-(cyclopropylmethyl)-6-morpholino-2-(3-phenylpiperidin-1-yl)pyrimidine-4-carboxamide]
5.56	O=C(NCC1CC1)c1cc(N2CCOCC2)nc(NCCc2ccccc2)n1 [Example 47, N-(cyclopropylmethyl)-6-morpholino-2-(phenethylamino)pyrimidine-4-carboxamide]
5.04	CN(Cc1ccccc1)c1nc(C(=O)NCC2CC2)cc(N2CCOCC2)n1 [Example 48, 2-(benzyl(methyl)amino)-N-(cyclopropylmethyl)-6-morpholinopyrimidine-4-carboxamide]
6.15	CN(CCc1ccccc1)c1nc(C(=O)NCC2CC2)cc(N2CCOCC2)n1 [Example 49, N-(cyclopropylmethyl)-2-(methyl(phenethyl)amino)-6-morpholinopyrimidine-4-carboxamide]
6.55	CC(C)N(CCc1ccccc1)c1nc(C(=O)NCC2CC2)cc(N2CCOCC2)n1 [Example 50, N-(cyclopropylmethyl)-2-(isopropyl(phenethyl)amino)-6-morpholinopyrimidine-4-carboxamide]
5.66	O=C(NCC1CC1)c1cc(N2CCOCC2)nc(N2CCC(c3ccccc3)C2)n1 (stereo not shown) [Example 51, N-(cyclopropylmethyl)-6-morphol ino-2-(3-phenylpyrrolidin-1-yl)pyrimidine-4-carboxamide]
6.42	O=C(NCC1CC1)c1cc(N2CCOCC2)nc(N2CCCC(c3ccccc3)C2)n1 (stereo not shown) [Example 52, N-(cyclopropylmethyl)-6-morphol ino-2-(3-phenylpiperidin-1-yl)pyrimidine-4-carboxamide]
5.52	CN(CCc1ccc(Oc2ccccc2)cc1)c1nc(C(=O)NCC2CC2)cc(N2CCOCC2)n1 [Example 53, N-(cyclopropylmethyl)-2-(methyl(4-phenoxyphenethyl)amino)-6-morpholinopyrimidine-4-carboxamide]

pIC50	SMILES
6.13	O=C(NCC1CC1)c1cc(N2CCOCC2)nc(N2CCCCC2Cc2ccccc2)n1 (stereo not shown) [Example 54, 2-(2-benzylpiperidin-1-yl)-N-(cyclopropylmethyl)-6-morpholinopyrimidine-4-carboxamide]
5.39	CN(CCc1ccccc1)c1cc(C(=O)NCC2CC2)nc(N2CCOCC2)n1 [Example 55, N-(cyclopropylmethyl)-6-(methyl(phenethyl)amino)-2-morpholinopyrimidine-4-carboxamide]
5.21	CN(CCc1ccc(C(F)(F)F)cc1)c1nc(C(=O)NCC2CC2)cc(N2CCOCC2)n1 [Example 56, N-(cyclopropylmethyl)-2-(methyl(4-(trifluoromethyl)phenethyl)amino)-6-morpholino-pyrimidine-4-carboxamide]
5.20	CN(CCc1ccc(Cl)cc1)c1nc(C(=O)NCC2CC2)cc(N2CCOCC2)n1 [Example 57, 2-((4-chlorophenethyl)(methyl)amino)-N-(cyclopropylmethyl)-6-morphol inopyrimidine-4-carboxamide]
5.50	CN(CCCc1ccccc1)c1nc(C(=O)NCC2CC2)cc(N2CCOCC2)n1 [Example 58, N-(cyclopropylmethyl)-2-(methyl(3-phenylpropyl)amino)-6-morpholinopyrimidine-4-carboxamide]
6.42	O=C(NCC1CC1)c1cc(N2CCOCC2)nc(N2CCCC2Cc2ccccc2)n1 (stereo not shown) [Example 59, 2-(2-benzylpyrrolidin-1-yl)-N-(cyclopropylmethyl)-6-morpholinopyrimidine-4-carboxamide]
5.00	CN(CCCCc1ccccc1)c1nc(C(=O)NCC2CC2)cc(N2CCOCC2)n1 [Example 60, N-(cyclopropylmethyl)-2-(methyl(4-phenylbutyl)amino)-6-morpholinopyrimidine-4-carboxamide]
5.46	CN(CCc1cccc(Oc2ccccc2)c1)c1nc(C(=O)NCC2CC2)cc(N2CCOCC2)n1 [Example 61, N-(cyclopropylmethyl)-2-(methyl(3-phenoxyphenethyl)amino)-6-morpholinopyrimidine-4-carboxamide]
6.28	O=C(NCC1CC1)c1cc(N2CCOCC2)nc(N(CCc2ccccc2)CCc2ccccc2)n1 [Example 62, N-(cyclopropylmethyl)-2-(diphenethylamino)-6-morpholinopyrimidine-4-carboxamide]
5.65	O=C(NCC1CC1)c1cc(N2CCOCC2)nc(N2CCc3ccccc3C2)n1 [Example 63, N-(cyclopropylmethyl)-2-(3,4-dihydroisoquinolin-2(1H)-yl)-6-morphol inopyrimidine-4-carboxamide]
5.46	COc1ccc(CCN(C)c2nc(C(=O)NCC3CC3)cc(N3CCOCC3)n2)cc1 [Example 64, N-(cyclopropylmethyl)-2-((4-methoxyphenethyl)(methyl)amino)-6-morpholinopyrimidine-4-carboxamide]
5.95	O=C(NCC1CC1)c1cc(N2CCOCC2)nc(N(CCc2ccccc2)Cc2ccccc2)n1 [Example 65, 2-(benzyl(phenethyl)amino)-N-(cyclopropylmethyl)-6-morpholinopyrimidine-4-carboxamide]
5.61	CN(CCc1cccc(Cl)c1)c1nc(C(=O)NCC2CC2)cc(N2CCOCC2)n1 [Example 66, 2-((3-chlorophenethyl)(methyl)amino)-N-(cyclopropylmethyl)-6-morpholinopyrimidine-4-carboxamide]
6.22	CN(CCc1ccccc1Oc1ccccc1)c1nc(C(=O)NCC2CC2)cc(N2CCOCC2)n1 [Example 67, N-(cyclopropylmethyl)-2-(methyl(2-phenoxyphenethyl)amino)-6-morpholinopyrimidine-4-carboxamide]
6.01	CN(CCc1ccccc1Cl)c1nc(C(=O)NCC2CC2)cc(N2CCOCC2)n1 [Example 68, 2-((2-chlorophenethyl)(methyl)amino)-N-(cyclopropylmethyl)-6-morpholinopyrimidine-4-carboxamide]
